Assay results reported in patent US11723911B2, “Treatment of demyelinating diseases” (M ET P PHARMA AG, priority 2018, dated 2023).

Legend:
[1] = tested on: experimental autoimmune encephalomyelitis (EAE) in castrated male mice; assay: Experimental autoimmune encephalomyelitis (EAE): clinical score, electron microscopy and immunostaining of lumbar spinal cord; assay type: in vivo, mouse; settings: for density of myelinated axons in spinal cord (electron microscopy) / g-ratio (axon diameter/total outer diameter of the myelinated fiber) / percentage of abnormal axons among total axons: 30 days post EAE induction; for g-ratio (axon diameter/total outer diameter of the myelinated fiber): small calibre axons (≤2.5 μm), n=3; for total density of activated Iba1+ microglia in the spinal cord: FIG. 5E; for EAE clinical score: between days 21 and 30, testosterone intranasal 0.2 mg/day, SAG oral gavage every other day; for area occupied by Arg1+ cells as percentage of the total area of the lesion: lumbar spinal cord, FIG. 5F; for percentage of abnormal axons among total axons / GFAP-positive area as percentage of the lesion area: spinal cord; for GFAP-positive area as percentage of the lesion area: FIG. 5G
Description: Electron microscopy. […] The g ratio (the ratio between the axon diameter and fiber diameter corresponding to myelin sheath+axon diameter) was estimated by measuring the minimum and maximum axon diameter and fiber diameter for each axon using ImageJ software. At least 300 randomly chosen myelinated axons were evaluated for each animal.
The pathology was induced according to the instructions from the provider (Hooke Laboratories, MA, USA). Briefly, mice were immunized by subcutaneous injection of an emulsion of MOG35-55 peptide (myelin oligodendrocyte glycoprotein[…] fragment 35-55) in complete Freund's adjuvant (at two sites using 0.1 ml of the pre-conditioned mixture for each site) followed on the same day (Day 0) by a first intraperitoneal injection of pertussis toxin in PBS and by a second one on Day 1 (250 ng/dose). The mice were scored blindly once a day starting at Day 7 post-immunization until Day 30 according to the following scale: 0.0=no obvious changes in motor function; 0.5=tip of tail is limp; 1.0=limp tail; 1.5=limp tail and hind leg inhibition; 2.0=limp tail and weakness of hind legs or signs of head tilting; 2.5=limp tail and dragging of hind legs or signs of head tilting; 3.0=limp tail and complete paralysis of hind legs or limb tail with paralysis of one front and one hind leg; 3.5=limp tail and complete paralysis of hind legs and animal unable to right itself when placed on its side; 4.0=limb tail, complete hind leg and partial front leg paralysis with minimal moving and feeding; 4.5=complete hind and partial front leg paralysis with no movement around the cage with the animal appearing no more alert; 5.0=extreme paralysis which requires euthanasia of the animal.
The active agents were administered at the onset of clinical symptoms until Day 30 after immunization. Testosterone was administered via the intranasal route (0.2 mg/day in a volume of 2.5 μl in each nostril) in an oleogel composition as described above. SAG was administered orally by gavage ([…] of mouse weight) every other day.
The animals were sacrificed by ketamine overdose. The spinal cord/vertebrae was removed and lumbar spinal cord/vertebrae samples were treated according to the requirements of the various histological procedures. For immunostaining, the spinal cord/vertebrae fragments were post-fixed in PFA 4% for 24 hrs. The spinal cords were removed from the vertebral column, processed in an ethanol/xylene bath and embedded in paraffin blocks. 7-μm sections were then obtained using a microtome (Leica) and allowed to dry on glass slides overnight at 37° C. For electron microscopy, the spinal cord/vertebrae fragments were post-fixed in a mixture of PFA 2% and glutaraldehyde 2% for 5 days. The spinal cords were removed from the vertebral column, post-fixed in cacodylate-buffered 1% osmium tetroxide for 1 hour at 4° C. and in 2% uranyl acetate for 1 hour at room temperature, and then dehydrated by serial dilutions of ethanol and embedded in epoxy resin. Ultrathin sections were contrasted with a saturated uranyl acetate solution.

[2] = tested on: primary mixed glial cells; assay: Proliferation of Olig2+ cells (BrdU incorporation) in primary mixed glial cell cultures; assay type: cell-based, mouse; settings: for Olig2+ BrdU+ proliferating cells as percentage of total Olig2+ cells: SAG 1 μM or testosterone 1 μM from 5 to 12 DIV, BrdU 2 hours before end of culture
Description: Primary glial cell cultures were prepared from the dorsal telencephalon of newborn (P1) male mice as previously described in Feutz et al, J. Neurocytol, “Isolation and characterization of defective jimpy oligodendrocytes in culture”, 24:865-877 ([…]). Briefly, meninges are removed, and the dorsal telencephalons are microdissected and mechanically dissociated in DMEM supplemented with 10% calf serum, penicillin (50 U/ml), and streptomycin (50 μg/ml) (Thermo Fisher Scientific, France). The cell suspension is plated in a 24-well plates containing 0.5 ml of cultured medium coated with 30 μg/ml poly-1-lysine (Sigma-Aldrich). Cultures containing astrocytes, oligodendrocytes (OLs) and microglia cells are then incubated in 5% CO2 and 95% air in a humidified atmosphere (90%) at 37° C.
[…]. The supplemented culture medium was replaced every other day with a fresh solution. At 12 DIV, the cells were fixed for 20 minutes with 4% paraformaldehyde (PFA) in PBS, then permeabilized with 0.025% Triton X-100 for 10 minutes and blocked for 1 hour with Sea Block buffer (Thermo Fisher Scientific).
The cells were immunostained for BrdU and Olig2. For immunostaining, after overnight incubation with the primary antibodies at 4° C. followed by 3 washes in PBS, the cells were incubated with the appropriate secondary antibodies for 2 hours before washing with PBS and the addition of Fluoromount (Vector, clinisciences, France) as the mounting medium. Images were acquired with immunofluorescence microscopy as described above. (Data not shown).

[3] = tested on: primary mixed glial cells derived from Plp-EGP mice; assay: Differentiation of PLP+ oligodendroglial cells co-expressing MBP in primary mixed glial cells from Plp-EGFP mice; assay type: cell-based, mouse; settings: for fold increase in the percentage of PLP+ cells co-expressing MBP compared to control / percentage of PLP+ cells co-expressing MBP: SANT 0.1 μM, testosterone 1 μM, alone or together; for percentage of PLP+ cells co-expressing MBP: 12 DIV
Description: Briefly, meninges are removed, and the dorsal telencephalons are microdissected and mechanically dissociated in DMEM supplemented with 10% calf serum, penicillin (50 U/ml), and streptomycin (50 μg/ml) (Thermo Fisher Scientific, France). The cell suspension is plated in a 24-well plates containing 0.5 ml of cultured medium coated with 30 μg/ml poly-1-lysine (Sigma-Aldrich).
The supplemented culture medium was replaced every other day with a fresh solution.
To analyse differentiation of myelin producing cells, the primary mixed glial cells were derived from Plp-EGP mice and cultured as described above. Detection of PLP+ cells co-expressing MBP was performed by using primary mixed glial cells derived from Plp-EGP mice and immunostaining for Mbp. Immunofluorescence images were acquired as described above and the number of PLP^+ cells co-expressing MBP were evaluated.

[4] = tested on: LPC-induced demyelination in young male adult mice; assay: LPC-induced demyelination of the corpus callosum with or without SAG (immunostaining at 2 and 10 dpl); assay type: in vivo, mouse
Description: Image Acquisition and Analysis. Images were taken using the microscope analyzing system Axiovision 4.2 (Carl Zeiss, Inc.), the confocal Zeiss LSM 510-Meta Confocor 2 and the scanner imager with the CaseViewer software. Analyses were performed with ImageJ software. At least 10 sections per mouse were analyzed and data are the mean of 3-5 mice. For the brains derived from the lysolecithin (LPC)-injected animals, immunofluorescent-positive cells or areas were determined in one every other 5 sections throughout the whole demyelinated lesion per mouse and averaged for each animal. The lesion surface was determined by measuring the area of the nuclear densification (correlated with myelin loss visualized by MBP or PLP staining) one every other 5 slices through the whole demyelinated lesion.
The effect of Smo activation by the Smo agonist SAG on demyelination was investigated as follows. LPC-induced demyelination was performed as previously described in Ferent et al., J. Neuroscience 33:1759-1772 (2013), in the absence or presence of SAG, in young male adult mice. Briefly, demyelinating lesions were induced unilaterally by stereotaxic injections of 2 μl of a solution containing LPC 1% (Sigma-Aldrich) along with SAG (0.2 μM) or the corresponding vehicle, into the right corpus callosum by using a Hamilton syringe specifically dedicated for neural surgery (NH BIO, France). The injection was performed at the following coordinates (to the bregma): anteroposterior (AP)+1 mm, lateral+1 mm, dorsoventral (DV) −2.2 mm. The brain was removed from deeply anesthetized mice and transcardially perfused with 4% PFA. The tissue was post-fixed for 4 hours in a fresh 4% PFA solution before being cryopreserved in 30% sucrose, frozen in liquid nitrogen and cryostat sectioned (14 μm). 4-5 mice were used per time point for each treatment condition. Mice were sacrificed at 2 and 10 days post-lesion (dpl), and prepared for immunostaining of PDGFRα, Olig2/APC, Ki67/PDGFRα, GFAP, and Iba1/Arg1. Images of immunostaining were acquired using immunofluorescence microscopy (data not shown), and the results were quantified by evaluating number of cells per surface unit for PDGFRα (FIG. 4A), Olig2/APC (FIG. 4B), Ki67/PDGFRα (FIG. 4C), GFAP (FIG. 4D), Iba1/Arg1 (FIG. 4E)

[5] = tested on: postnatal day 10 male pups; assay: Developmental myelination in male pups treated subcutaneously from P3 to P10 (MBP/NF200 immunostaining); assay type: in vivo, mouse; settings: s.c. every other day from P3, SANT 20 μg/g, testosterone 20 μg
[6] = tested on: LPC-induced demyelination model, castrated male mice; assay: Phosphorylated STAT3-expressing astrocytes in castrated male mice demyelinated by lysolecithin; assay type: in vivo, mouse
Source text: […]. The latter is important for both remyelination and astrocyte reactivity, which is similar to activated microglia involved in local inflammation. […].

| SMILES | density of myelinated axons in spinal cord (electron microscopy) [1] | g-ratio (axon diameter/total outer diameter of the myelinated fiber) [1] | total density of activated Iba1+ microglia in the spinal cord [1] | EAE clinical score [1] | area occupied by Arg1+ cells as percentage of the total area of the lesion [1] [%] | percentage of abnormal axons among total axons [1] [%] | GFAP-positive area as percentage of the lesion area [1] [%] | Olig2+ BrdU+ proliferating cells as percentage of total Olig2+ cells [2] [%] | myelinated area: area occupied by MBP as percentage of total area occupied by NF200 axons [5] [%] | fold increase in the percentage of PLP+ cells co-expressing MBP compared to control [3] [fold] | percentage of PLP+ cells co-expressing MBP [3] [%] | other results |
| --- | --- | --- | --- | --- | --- | --- | --- | --- | --- | --- | --- | --- |
| CN[C@H]1CC[C@H](N(Cc2cccc(-c3ccncc3)c2)C(=O)c2sc3ccccc3c2Cl)CC1 [SAG, 3-Chloro-N-[trans-4-(methylamino)cyclohexyl]-N-[[3-(4-pyridinyl)phenyl]methyl]benzo[b]thiophene-2-carboxamide] | much higher density of myelinated axons | 0.737±0.005 | Neither testosterone nor SAG was found to significantly modify | ~1.0 | 10.9±1.7 | 14.0±1.7 | 25.1±2.2 | 8.4±0.5 | – | – | – | Claudin 5-positive area as percentage of the lesion area ([1]; blood brain barrier tight junction marker, FIG. 5H): 2.35±0.27%; Effect on Mbp expression when used alone ([3]; SAG 0.1 μM or 1 μM alone): did not modify Mbp expression; Effect on testosterone-mediated OL differentiation ([3]; SAG 0.1 μM or 1 μM with testosterone 1 μM): slight but significant decrease; Iba1+ microglia versus control ([4]; 2 dpl): unaffected; area occupied by GFAP+ astrocytes versus control ([4]; 2 dpl): tended to be decreased; density of Arg1+ pro-regenerative microglia ([4]; 2 dpl): 103±7 cells per surface unit; density of proliferating Ki67+ PDGFRα+ OPCs ([4]; 2 dpl): 39±2 cells per surface unit; fold enhancement of the density of Arg1+ microglia ([4]; 2 dpl): 2 fold; fold increase of the proportion of Iba1 microglia co-expressing Arg1 ([4]; 2 dpl): two-fold; proportion of Iba1 microglia co-expressing Arg1 ([4]; 2 dpl): 58±5%; total number of PDGFRα+ OPCs versus control ([4]; 2 dpl): remained unchanged; density of Olig2+ APC+ mature OLs ([4]; 10 dpl): 83±7 cells per surface unit; fold increase in PDGFRα+ cells compared to controls ([4]; 10 dpl): 2 fold; proportion of mature OLs versus control ([4]; 10 dpl): not significantly different; PDGFRα+ cells (OPCs) per unit surface ([4]; 10 dpl, SAG 0.2 μM injected with LPC): 121±11 cells per surface unit |
| Cc1nn(-c2ccccc2)c(C)c1C=NN1CCN(Cc2ccccc2)CC1 [SANT-1, (4-Benzyl-piperazin-1-yl)-(3,5-dimethyl-1-phenyl-1H-pyrazol-4-ylmethylene)-amine] | – | – | – | – | – | – | – | – | 75.1±4.3 | 4 | 12.4±0.8 | Effect on testosterone-induced increase in Olig2+ BrdU+ cells ([2]; SANT-1 0.1 μM with testosterone 1 μM): blocks testosterone-induced increase |
| N#Cc1ccc(C2CCCc3cncn32)cc1 (stereo not shown) [fadrozole] | – | – | – | – | – | – | – | – | – | – | – | effect on the testosterone-induced increase of phosphorylated STAT3-expressing astrocytes ([6]; fadrozole per oral route 260 μg/kg with intranasal testosterone, 7 days): inhibited |
| C[C@]12CC[C@H]3[C@@H](CCC4=CC(=O)CC[C@@]43C)[C@@H]1CC[C@@H]2O [testosterone] | much higher density of myelinated axons | 0.773±0.003 | Neither testosterone nor SAG was found to significantly modify | ~2.0 | 6.8±1.4 | 15.8±1.4 | 38.8±1.8 | 3.8±0.6 | 78.0±4.1 | 4 | 11.7±1.5 | number of GFAP+ astrocytes expressing phosphorylated STAT3 ([6]; 7 days post-lesion, intranasal testosterone 0.2 mg/day or intranasal estradiol 0.05 mg/day): increased |
